Experimental data reported in US7829563B2, “Aminoamides as orexin antagonists” (Hoffmann-La Roche Inc., priority 2007, dated 2010).
Structures can show the parent of a compound that is named as a salt.

Biological target: T1, human orexin-2 (hOX2) receptors (Homo sapiens, UniProt O43614)
T1 construct: expressed in transfected cells
T1 sequence (O43614 1-444): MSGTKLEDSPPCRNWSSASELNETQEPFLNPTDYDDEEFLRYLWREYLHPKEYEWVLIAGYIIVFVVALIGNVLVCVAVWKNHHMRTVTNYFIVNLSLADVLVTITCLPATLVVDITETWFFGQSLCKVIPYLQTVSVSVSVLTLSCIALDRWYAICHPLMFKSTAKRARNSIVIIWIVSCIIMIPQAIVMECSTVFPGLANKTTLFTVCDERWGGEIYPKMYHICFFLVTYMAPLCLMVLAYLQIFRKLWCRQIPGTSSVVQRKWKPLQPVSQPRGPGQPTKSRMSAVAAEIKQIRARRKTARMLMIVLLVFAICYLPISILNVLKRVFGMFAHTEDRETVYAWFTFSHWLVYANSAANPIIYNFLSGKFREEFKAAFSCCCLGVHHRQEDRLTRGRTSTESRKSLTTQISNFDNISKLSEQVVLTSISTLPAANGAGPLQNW
Assay: Intracellular Ca2+ mobilization assay (FLIPR), antagonism of orexin-A
Assay type: cell-based
Conditions: CHO(dHFr−) cells stably expressing hOX2; orexin-A at EC80 as agonist; Kb=IC50/(1+[A]/EC50); read-out: Kb (μM) OX2R (human)
Procedure: R^7 and R^8 in scheme 5 are hydrogen, and the other substituents are as described above The compounds were investigated in accordance with the test given hereinafter. Intracellular Ca^2+ Mobilization Assay
The Chinese Hamster Ovary (dHFr−) mutant cell line stably expressing human orexin-1 (hOX1) or human orexin-2 (hOX2) receptors were maintained in Dulbecco's Modified Eagle Medium (1×) with GlutaMax™ 1, 4500 mg/L D-Glucose and Sodium Pyruvate (Catalog No. 31966-021, Invitrogen, Carlsbad, Calif.), 5% dialyzed fetal calf serum (Catalog No. 26400-044), 100 μg/ml penicillin and 100 μg/ml streptomycin. The cells were seeded at 5×10^4 cells/well in the poly-D-lysine treated, 96-well, black/clear-bottomed plates (Catalog No. BD356640, BD Biosciences, Palo Alto, Calif.). 24 h later, the cells were loaded for 1 h at 37° C. with 4 μM Flou-4 acetoxymethyl ester (Catalog No. F-14202, Molecular Probes, Eugene, Oreg.) in FLIPR buffer (1×HBSS, 20 mM HEPES, 2.5 mM Probenecid). Hanks' Balanced Salt Solution (HBSS) (10×) (catalog No. 14065-049) and HEPES (1M) (catalog No. 15630-056) were purchased from Invitrogen, Carlsbad, Calif. Probenecid (250 mM) (catalog No. P8761) was from Sigma, Buchs, Switzerland. The cells were washed five times with FLIPR buffer to remove excess dye and intracellular calcium mobilization, [Ca^2+]i were measured using a Fluorometric Imaging Plate Reader (FLIPR-96, Molecular Devices, Menlo Park, Calif.) as described previously (Malherbe et al., Mol. Pharmacol., 64, 823-832, 2003). Orexin A (catalog No. 1455, Toris Cookson Ltd, Bristol, UK) was used as agonist. Orexin A ([…] stock solution in DMSO) was diluted in FLIPR buffer+0.1% BSA. The EC50 and EC80 values of orexin-A were measured daily from standard agonist concentration-response curves in CHO(dHFr−)-OX1R and —OX2R cell lines. All compounds were dissolved in 100% DMSO. Inhibition curves were determined by addition of 11 concentrations (0.0001-10 μM) of inhibitory compounds and using EC80 value of orexin-A as agonist (a concentration which gave 80% of max agonist response, determined daily). The antagonists were applied 25 min (incubation at 37° C.) before the application of the agonist. Responses were measured as peak increase in fluorescence minus basal, normalized to the maximal stimulatory effect induced by EC80 value of orexin-A or orexin-B. Inhibition curves were fitted according to the Hill equation: y=100/(1+(x/IC50)^nH), where nH=slope factor using Excel-fit 4 software (Microsoft). Kb values were calculated according to the following equation Kb=IC50/(1+[A]/EC50) where A is the concentration of agonist added which is very close to agonist EC80 value, and IC50 and EC50 values were derived from the antagonist inhibition and orexin-A or B agonist curves, respectively.

| Compound | Kb [µM] |
| --- | --- |
| CNC(=O)[C@H](N[C@@H](CCc1ccc(C(F)(F)F)nc1)c1ccc(F)c(C)c1)c1ccccc1 (racemic) [Example 228, (S,R)-2-[(R,S)-1-(4-Fluoro-3-methyl-phenyl)-3-(6-trifluoromethyl-pyridin-3-yl)-propylamino]-N-methyl-2-phenyl-acetamide] | 0.0035 |
| CNC(=O)[C@H](N[C@@H](CCc1ccc(C(F)(F)F)cc1)c1cccc(OC)c1)c1ccccc1 [Example 221, (R)-2-[(S)-1-(3-Methoxy-phenyl)-3-(4-trifluoromethyl-phenyl)-propylamino]-N-methyl-2-phenyl-acetamide hydrochloride] | 0.0026 |
| CNC(=O)[C@H](N[C@@H](CCc1ccc(C(F)(F)F)cc1)c1cccc(OC(F)F)c1)c1ccccc1 [Example 387, (R)-2-[(S)-1-(3-Difluoromethoxy-phenyl)-3-(4-trifluoromethyl-phenyl)-propylamino]-N-methyl-2-phenyl-acetamide] | 0.008 |
| CNC(=O)[C@H](N[C@H](CCc1ccc(C(F)(F)F)cc1)c1ccc(Cl)c(OC)c1)c1ccccc1 (racemic) [Example 176, (S,R)-2-[(S,R)-1-(4-Chloro-3-methoxy-phenyl)-3-(4-trifluoromethyl-phenyl)-propylamino]-N-methyl-2-phenyl-acetamide] | 0.0086 |
| CNC(=O)[C@H](N[C@@H](CCc1ccc(C(F)(F)F)cc1)c1ccc2c(c1)CCCO2)c1ccccc1 [Example 113, (R)-2-[(S)-1-Chroman-6-yl-3-(4-trifluoromethyl-phenyl)-propylamino]-N-methyl-2-phenyl-acetamide] | 0.0089 |
| CNC(=O)[C@H](N[C@@H](CCc1ccc(C(F)(F)F)nc1)c1ccc(Cl)c(OC)c1)c1ccc(F)cc1 (racemic) [Example 224, (S,R)-2-[(R,S)-1-(4-Chloro-3-methoxy-phenyl)-3-(6-trifluoromethyl-pyridin-3-yl)-propylamino]-2-(4-fluoro-phenyl)-N-methyl-acetamide] | 0.0057 |
| CNC(=O)[C@H](N[C@@H](CCc1ccc(Cl)cc1)c1ccc(OC)c(OC)c1)c1ccccc1 [Example 163, (R)-2-[(S)-3-(4-Chloro-phenyl)-1-(3,4-dimethoxy-phenyl)-propylamino]-N-methyl-2-phenyl-acetamide] | 0.0011 |
| CNC(=O)[C@H](N[C@@H](CCc1ccc(C(F)(F)F)cc1)c1cccc(C)n1)c1ccccc1 (racemic) [Example 207, (S,R)—N-Methyl-2-[(R,S)-1-(6-methyl-pyridin-2-yl)-3-(4-trifluoromethyl-phenyl)-propylamino]-2-phenyl-acetamide] | 0.0079 |
| CNC(=O)[C@H](N[C@H](CCc1ccc(C(F)(F)F)nc1)c1ccc(Cl)c(C)c1)c1ccccc1 (racemic) [Example 243, (S,R)-2-[(S,R)-1-(4-Chloro-3-methyl-phenyl)-3-(6-trifluoromethyl-pyridin-3-yl)-propylamino]-N-methyl-2-phenyl-acetamide] | 0.0122 |
| CNC(=O)[C@H](N[C@H](CCc1ccc(C(F)(F)F)nc1)c1ccc(C)c(OC)c1)c1ccccc1 (racemic) [Example 252, (S,R)-2-[(S,R)-1-(3-Methoxy-4-methyl-phenyl)-3-(6-trifluoromethyl-pyridin-3-yl)-propylamino]-N-methyl-2-phenyl-acetamide] | 0.0024 |
| CNC(=O)[C@H](N[C@@H](CCc1ccc(C(F)(F)F)cc1)c1cccc(OC(F)F)c1)c1ccc(C)cc1 [Example 389, (R)-2-[(S)-1-(3-Difluoromethoxy-phenyl)-3-(4-trifluoromethyl-phenyl)-propylamino]-N-methyl-2-p-tolyl-acetamide] | 0.0048 |
| CNC(=O)[C@H](N[C@H](CCc1cccc(C(F)(F)F)c1)c1ccc(OC)c(OC)c1)c1ccccc1 (racemic) [Example 320, (R,S)-2-[(R,S)-1-(3,4-Dimethoxy-phenyl)-3-(3-trifluoromethyl-phenyl)-propylamino]-N-methyl-2-phenyl-acetamide] | 0.0021 |
| CNC(=O)[C@H](N[C@@H](CCc1ccc(C(F)(F)F)cc1)c1sc(C)nc1C)c1ccc(F)cc1 [Example 116, (R)-2-[(S)-1-(2,4-Dimethyl-thiazol-5-yl)-3-(4-trifluoromethyl-phenyl)-propylamino]-2-(4-fluoro-phenyl)-N-methyl-acetamide] | 0.0061 |

Now from value to molecule:

| Kb [µM] | Compound |
| --- | --- |
| 0.0116 | CNC(=O)[C@H](N[C@H](CCc1ccc(C(F)(F)F)cc1)c1cc(C)on1)c1ccccc1 (racemic) [Example 301, (S,R)—N-Methyl-2-[(S,R)-1-(5-methyl-isoxazol-3-yl)-3-(4-trifluoromethyl-phenyl)-propylamino]-2-phenyl-acetamide] |
| 0.0195 | CNC(=O)[C@H](N[C@H](CCc1ccc(C(F)(F)F)nc1)c1cccc(OC(F)(F)F)c1)c1ccccc1 (racemic) [Example 226, (S,R)—N-Methyl-2-phenyl-2-[(S,R)-1-(3-trifluoromethoxy-phenyl)-3-(6-trifluoromethyl-pyridin-3-yl)-propylamino]-acetamide] |
| 0.0184 | CNC(=O)[C@@](C)(N[C@@H](CCc1ccc(C(F)(F)F)cc1)c1ccc(OC)c(OC)c1)c1ccccc1 (single isomer, unassigned) [Example 29] |
| 0.0144 | CNC(=O)[C@H](N[C@@H](CCc1ccc(C(F)(F)F)nc1)c1cccc(OC(F)F)c1)c1ccccc1 (racemic) [Example 225, (S,R)-2-[(R,S)-1-(3-Difluoromethoxy-phenyl)-3-(6-trifluoromethyl-pyridin-3-yl)-propylamino]-N-methyl-2-phenyl-acetamide] |
| 0.0026 | CCNC(=O)[C@H](NC(CCc1ccc(C(F)(F)F)cc1)c1ccc(OC)c(OC)c1)c1ccccc1 (single isomer, unassigned) [Example 13, (R)-2-[(R or S)-1-(3,4-Dimethoxy-phenyl)-3-(4-trifluoromethyl-phenyl)-propylamino]-N-ethyl-2-phenyl-acetamide] |
| 0.0114 | CNC(=O)[C@H](N[C@@H](CCc1ccc(C(F)(F)F)nc1)c1ccc2c(c1)CCCC2)c1ccc(F)cc1 [Example 102, (R)-2-(4-Fluoro-phenyl)-N-methyl-2-[(S)-1-(5,6,7,8-tetrahydro-naphthalen-2-yl)-3-(6-trifluoromethyl-pyridin-3-yl)-propylamino]-acetamide] |
| 0.0018 | CNC(=O)[C@H](N[C@@H](CCc1ccc(Cl)cc1)c1ccc2c(c1)CCO2)c1ccccc1 [Example 96, (R)-2-[(S)-3-(4-Chloro-phenyl)-1-(2,3-dihydro-benzofuran-5-yl)-propylamino]-N-methyl-2-phenyl-acetamide] |
| 0.0107 | CNC(=O)[C@H](N[C@@H](CCc1ccc(C(F)(F)F)nc1)c1ccc(F)c(OC)c1)c1ccc(F)cc1 (racemic) [Example 240, (S,R)-2-[(R,S)-1-(4-Fluoro-3-methoxy-phenyl)-3-(6-trifluoromethyl-pyridin-3-yl)-propylamino]-2-(4-fluoro-phenyl)-N-methyl-acetamide] |
| 0.0034 | CNC(=O)[C@H](N[C@@H](CCc1ccc(C(F)(F)F)nc1)c1ccc(C)c(OC)c1)c1ccccc1 (racemic) [Example 253, (S,R)-2-[(R,S)-1-(3-Methoxy-4-methyl-phenyl)-3-(6-trifluoromethyl-pyridin-3-yl)-propylamino]-N-methyl-2-phenyl-acetamide] |
| 0.0167 | CNC(=O)[C@H](N[C@H](CCc1ccc(Cl)cc1)c1ccc(OC)c(OC)c1Cl)c1ccccc1 (racemic) [Example 41, (S,R)-2-[(S,R)-1-(2-Chloro-3,4-dimethoxy-phenyl)-3-(4-chloro-phenyl)-propylamino]-N-methyl-2-phenyl-acetamide] |
